From article PMC11822212, “High-throughput screening identifies Aurora kinase B as a critical therapeutic target for Merkel cell carcinoma” (Nature Communications, 2025)
Where a name gives a salt, the structure may show the parent alone. Read-outs that look alike come from different tables or passages of the source.

What was measured:
[1] = test system: NIH-3T3 cells; experiment: qHTS cell viability (CellTiter-Glo, 72 h; primary screen), control cell line; format: cell-based, mouse
[2] = test system: CRL-7250 cells; experiment: as above; format: cell-based
[3] = test system: VN-MCC cell lines (MCC13, MCC26, UISO); experiment: qHTS cell viability, VN-MCC cell lines as a group (mean AUC, VN.MCC.avg); format: cell-based, human
[4] = test system: HEK293T cells; experiment: qHTS cell viability (CellTiter-Glo, 72 h; primary screen), control cell line; format: cell-based, human
[5] = test system: UISO cells (VN-MCC); experiment: qHTS cell viability (CellTiter-Glo, 72 h; primary and follow-up small molecule screen); format: cell-based, human
[6] = test system: MCC13 cells (VN-MCC); experiment: as above; format: cell-based, human
[7] = test system: HACAT cells; experiment: qHTS cell viability (CellTiter-Glo, 72 h; primary screen), control cell line; format: cell-based, human
[8] = test system: MKL-2 cells (VP-MCC); experiment: qHTS cell viability (CellTiter-Glo, 72 h; primary and follow-up small molecule screen); format: cell-based, human
[9] = test system: MCC cell lines (WAGA, MKL-1, MKL-2, MCC13, MCC26, UISO); experiment: qHTS cell viability, all six MCC cell lines as a group (mean AUC, MCC.avg); format: cell-based, human
[10] = test system: WAGA cells (VP-MCC); experiment: qHTS cell viability (CellTiter-Glo, 72 h; primary and follow-up small molecule screen); format: cell-based, human
[11] = test system: MCC26 cells (VN-MCC); experiment: as above; format: cell-based, human
[12] = test system: VP-MCC cell lines (WAGA, MKL-1, MKL-2); experiment: qHTS cell viability, VP-MCC cell lines as a group (mean AUC, VP.MCC.avg); format: cell-based, human
[13] = test system: six MCC cell lines and four control cell lines; experiment: qHTS cell viability, all 10 cell lines screened; format: cell-based
[14] = test system: MKL-1 cells (VP-MCC); experiment: qHTS cell viability (CellTiter-Glo, 72 h; primary and follow-up small molecule screen); format: cell-based, human
[15] = test system: control cell lines (HACAT, HEK293T, CRL-7250, NIH-3T3); experiment: qHTS cell viability, control cell lines as a group (mean AUC, Control.avg); format: cell-based
[16] = NPC library, 8-point DRC, control cell line
[17] = NPC library, mean AUC of VN-MCC cell lines
[18] = NPC library, 8-point DRC, area under dose-response curve
[19] = NPC library, mean AUC of six MCC cell lines
[20] = NPC library, mean AUC of VP-MCC cell lines
[21] = NPC library, mean AUC of control cell lines
[22] = NPC library, qHTS dose-response AUC, NIH3T3 control
[23] = NPC library, qHTS dose-response AUC, CRL7250 control
[24] = NPC library, therapeutic window: Control avg AUC minus VN-MCC avg AUC
[25] = NPC library, qHTS dose-response AUC, HEK293T control
[26] = NPC library, qHTS dose-response AUC, UISO
[27] = NPC library, qHTS dose-response AUC, MCC13
[28] = NPC library, qHTS dose-response AUC, HACAT control
[29] = NPC library, qHTS dose-response AUC, MKL2
[30] = NPC library, qHTS dose-response AUC, WAGA
[31] = NPC library, qHTS dose-response AUC, MCC26
[32] = NPC library, therapeutic window: Control avg AUC minus VP-MCC avg AUC
[33] = NPC library, therapeutic window: Control avg AUC minus MCC avg AUC
[34] = NPC library, qHTS dose-response AUC, MKL1

| Structure (SMILES) | VN-MCC_Avg_AUC [3, 17] | MCC_Avg_AUC [9, 19] | VP-MCC_Avg_AUC [12, 20] | Control_Avg_AUC [15, 21] | NIH3T3_AUC [1, 22] | CRL7250_AUC [2, 23] | Control-VN-MCC [3, 24] | HEK293T_AUC [4, 25] | UISO_AUC [5, 26] | MCC13_AUC [6, 27] | HACAT_AUC [7, 28] | MKL2_AUC [8, 29] | WAGA_AUC [10, 30] | MCC26_AUC [11, 31] | Control-VP-MCC [12, 32] | Control-MCC [13, 33] | MKL1_AUC [14, 34] | further results |
| --- | --- | --- | --- | --- | --- | --- | --- | --- | --- | --- | --- | --- | --- | --- | --- | --- | --- | --- |
| COc1ccc(CCN(C)CCCC(C#N)(c2cc(OC)c(OC)c(OC)c2)C(C)C)cc1OC (centres unmarked) [Gallopamil hydrochloride] | 424.406 | 434.143 | 443.879 | 479.21 |  |  |  |  |  |  |  |  |  |  |  |  |  | NIH3T3_AUC [1, 16]: 476.798; CRL7250_AUC [2, 16]: 487.096; Control-VN-MCC ([3]; NPC library, Control AUC minus VN-MCC AUC (therapeutic window)): 54.804; HEK293T_AUC [4, 16]: 464.897; UISO_AUC [5, 18]: 431.729; MCC13_AUC [6, 18]: 438.844; HACAT_AUC [7, 16]: 488.048; MKL2_AUC [8, 18]: 457.405; WAGA_AUC [10, 18]: 444.909; MCC26_AUC [11, 18]: 402.644; Control-VP-MCC ([12]; NPC library, Control AUC minus VP-MCC AUC (therapeutic window)): 35.3303; Control-MCC ([13]; NPC library, Control AUC minus MCC AUC (therapeutic window)): 45.0671; MKL1_AUC [14, 18]: 429.324 |
| CNC(=O)[C@H](CC1=CN=C2C=CCC=C12)NC(=O)[C@@H](CC(=O)NO)CC(C)C [GM-6001] |  |  |  |  |  |  |  |  |  |  |  |  |  |  |  |  |  | NIH3T3_AUC [1]: 471.496; CRL7250_AUC [2]: 472.869; Control-VN-MCC [3]: -9.139; VN-MCC_Avg_AUC [3]: 478.29; HEK293T_AUC [4]: 473.463; UISO_AUC [5]: 484.498; MCC13_AUC [6]: 475.165; HACAT_AUC [7]: 458.777; MKL2_AUC [8]: 291.464; MCC_Avg_AUC [9]: 388.271; WAGA_AUC [10]: 319.008; MCC26_AUC [11]: 475.207; Control-VP-MCC [12]: 170.899; VP-MCC_Avg_AUC [12]: 298.252; Control-MCC [13]: 80.8804; MKL1_AUC [14]: 284.283; Control_Avg_AUC [15]: 469.151 |
| CCCC(C(=O)OCCN(CC)CC)(c1ccccc1)c1ccccc1 [Proadifen hydrochloride] | 425.473 | 413.175 | 400.877 | 459.893 | 451.129 | 484.159 | 34.42 | 426.534 | 416.723 | 446.167 | 477.751 | 398.333 | 421.101 | 413.531 | 59.0165 | 46.7182 | 383.197 |  |
| [H]/N=C(/NCCCCC)N/N=C/c1c[nH]c2ccc(OC)cc12 [Tegaserod] | 434.493 | 348.911 | 263.329 | 420.238 | 444.55 | 432.653 | -14.2555 | 405.853 | 401.587 | 473.827 | 397.896 | 260.213 | 279.713 | 428.067 | 156.909 | 71.3268 | 250.061 |  |
